Here are results for one sequence from patent publication US20090170762A1, “Treatment of Diabetes Related Obesity” (UUTech Limited, priority 2005, published 2009).

Ends that are not written are not given here.

In data set [1] the test system is normal mice. The following applies: once daily 11 days (Irwin 2004); cited from earlier work.
Data set [2] addresses DPP-IV (Homo sapiens, UniProt P27487). The data set is described as follows: Degradation of GIP and Glu3-substituted GIP analogs by DPP-IV (HPLC). Type of data set: in vitro ADME.
Data set [3] addresses T1, human GIP-R (Homo sapiens, UniProt P48546).
T1 construct: expressed in transfected cells; host or cells: Chinese Hamster Lung (CHL) fibroblast cells, stably transfected
T1 sequence (P48546 22-466): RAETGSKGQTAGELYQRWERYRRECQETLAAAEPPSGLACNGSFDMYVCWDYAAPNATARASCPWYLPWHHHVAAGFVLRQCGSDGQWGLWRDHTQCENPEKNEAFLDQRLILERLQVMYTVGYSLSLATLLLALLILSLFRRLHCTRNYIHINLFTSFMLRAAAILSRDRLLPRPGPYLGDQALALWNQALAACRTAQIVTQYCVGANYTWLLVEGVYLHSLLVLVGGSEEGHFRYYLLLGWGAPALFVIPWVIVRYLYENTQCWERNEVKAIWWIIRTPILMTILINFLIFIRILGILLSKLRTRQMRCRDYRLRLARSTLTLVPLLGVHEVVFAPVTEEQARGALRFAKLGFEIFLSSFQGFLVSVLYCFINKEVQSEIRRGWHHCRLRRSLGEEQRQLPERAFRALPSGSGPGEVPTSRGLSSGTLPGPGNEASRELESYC
Nature of the data set: Cyclic AMP production in GIP-R transfected CHL cells. Type of data set: cell-based. The procedure, abridged:
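Cells washed in ice-cold HBS buffer (5.6 mm glucose, pH 7.4), then lysed in TCA/SDS solution with unlabelled cAMP and ATP. Tritiated cAMP formation measured by Dowex and alumina ion-exchange column chromatography.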

Sequence of DPP-IV (P27487 whole entry, species assumed): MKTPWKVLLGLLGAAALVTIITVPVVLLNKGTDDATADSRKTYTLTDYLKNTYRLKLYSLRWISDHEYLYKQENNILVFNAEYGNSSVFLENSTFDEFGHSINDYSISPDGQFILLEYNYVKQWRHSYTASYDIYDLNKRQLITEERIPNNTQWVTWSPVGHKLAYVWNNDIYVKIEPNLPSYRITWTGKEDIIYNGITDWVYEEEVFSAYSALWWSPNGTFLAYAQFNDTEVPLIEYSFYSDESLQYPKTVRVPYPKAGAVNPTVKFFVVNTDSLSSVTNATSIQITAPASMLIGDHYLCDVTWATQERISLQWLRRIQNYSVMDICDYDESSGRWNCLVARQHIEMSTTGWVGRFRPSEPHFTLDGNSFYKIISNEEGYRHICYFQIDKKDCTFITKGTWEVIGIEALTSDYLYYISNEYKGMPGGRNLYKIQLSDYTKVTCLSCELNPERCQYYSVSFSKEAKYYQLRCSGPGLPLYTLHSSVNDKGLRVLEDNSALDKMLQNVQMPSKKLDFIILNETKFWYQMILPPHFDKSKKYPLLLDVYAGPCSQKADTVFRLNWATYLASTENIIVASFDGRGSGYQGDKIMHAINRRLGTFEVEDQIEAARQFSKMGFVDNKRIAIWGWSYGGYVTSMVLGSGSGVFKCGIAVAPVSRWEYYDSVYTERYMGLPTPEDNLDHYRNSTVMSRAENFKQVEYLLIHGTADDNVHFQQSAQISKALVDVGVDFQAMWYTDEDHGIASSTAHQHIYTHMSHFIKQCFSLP

As usually defined, the half-life is the time in which the quantity being followed falls by half. The term share remaining denotes the share of the starting amount still present when the sample was taken. Usually EC50 stands for the midpoint of the concentration-response curve. Lower therefore signals a more potent agent. For the sequence “YAPGTFISDYSIAMDKIHQQDFVNWLLAQKGKKNDWKHNITQ [(Pro^3)GIP]”, the “glucose tolerance and insulin sensitivity” value in data set [1] was “reversible impairment of glucose tolerance associated with decreased insulin sensitivity”. The half-life at 2 μm in data set [2] (DPP-IV enzyme (5 mU) in buffer, pH 7.8, incubation with DPP-IV, unit not given (time points in hrs), read-out: Estimated Half-Life (converted)) was above 8 h. The “Intact Peptide Remaining (%) 0 hrs.” value in data set [2] (incubation with DPP-IV (5 mU), 37°C, pH 7.8, 0 hrs) is reported as 100%. Also, in data set [2] (isolated DPP-IV enzyme (5 mU), incubation with DPP-IV (5 mU), 37°C, pH 7.8, 2 hrs, read-out: Intact Peptide Remaining (%) 2 hrs.), the amount remaining at 2 h, 2 μm amounted to 100%. Moreover, the fraction remaining at 4 h, 2 μm in data set [2] (isolated DPP-IV enzyme (5 mU), incubation with DPP-IV (5 mU), 37°C, pH 7.8, 4 hrs, read-out: Intact Peptide Remaining (%) 4 hrs.) was 100%. The amount remaining at 8 h, 2 μm in data set [2] (isolated DPP-IV enzyme (5 mU), incubation with DPP-IV (5 mU), 37°C, pH 7.8, 8 hrs, read-out: Intact Peptide Remaining (%) 8 hrs.) amounted to 100%. In addition, the “resistance to DPP-IV degradation” value in data set [2] (words, up to 8 hours incubation) is given as “completely resistant”. Further, the EC50 in data set [3] was determined as 207 nM. In addition, in data set [3] (CHL, read-out: cAMP response in presence of 10^-7 M GIP (% GIP max)), the remaining activity at 0.1 µM worked out at 66 ± 7%. In addition, the “inhibition of GIP-stimulated cAMP production” value in data set [3] (in presence of GIP (10^-7 m)) is given as “significantly inhibited”.
